Reference: US20250099531A1, “SYNERGISTIC COMPOSITIONS FOR ENHANCING TFEB-MEDIATED INTRACELLULAR CLEARANCE” (CELAGENEX RESEARCH (INDIA) PVT. LTD., priority 2022, published 2025)
Read-outs that look alike come from different tables or passages of the source.

Legend:
[1] = tested on: Human Monocytes (THP-1) cell line; experiment: Estimation of autophagy using flow cytometer by CYTO-ID Autophagy Detection Kit; format: cell-based; conditions: THP-1 cells in autophagy, 24 h treatment, amounts as in the group description
Method: [table] […] To each well of the 6 well plates, 2 mL of the diluted cell suspension was added. After 24 h, 1 mL of different test concentrations and combinations of test substances were added. […] THP-1 cells were incubated with Rapamycin, and test substances in a 6-well plate. Followed by incubation, cells from different groups were harvested and measured using CYTO-ID autophagy detection kit by flow cytometer. All the reagents, standard solutions and samples will be thawed to room temperature before use. The assay was carried out as per manufacturer's instructions.

[2] = tested on: Human Monocytes (THP-1) cell line; conditions: 24 h
Method: The in vitro cytotoxicity was performed on Human Monocytes (THP-1) cell line to find the non-toxic concentrations of the test substances by WST-1 assay and evaluate their autophagic activity in Human Monocytes by CYTO-ID® Autophagy Detection Kit
About 10 mg of the test substances, N-(3-Aminopropyl)-1,4-butanediamine and N-α-Acetyl-N-β-alanyl-L-histidine were dissolved separately with 1 mL RPMI-1640 supplemented with 2% inactivated FBS to obtain a stock solution of 10 mg/mL concentration. Diluted the stock to desired concentrations for carrying out further studies.
THP-1 (Human Monocyte cells) was procured from NCCS, India. Stock cells were cultured in RPMI-1640 supplemented with 10% inactivated Fetal Bovine Serum (FBS), penicillin (100 IU/mL), streptomycin (100 μg/mL) and amphotericin B (5 μg/mL) in an humidified atmosphere of 5% CO2 at 37° C. until confluent. The stock cultures were grown in 25 cm^2 culture flasks and all experiments were carried out in 96 microtitre plates and 6 well plate (Tarsons India Pvt. Ltd., Kolkata, India).
The cell count was adjusted to 100,000 cells/mL using RPMI-1640 containing 10% FBS. To each well of the 96 well micro titre plate, 0.1 mL of the diluted cell suspension was added. After 24 h, 0.1 mL of different test concentrations were added in the micro titre plate. The untreated cells were maintained as cell control for comparison. The plate was then incubated at 37° C. for 24 h in 5% CO2 atmosphere, and microscopic examination was carried out and observations were noted. After 24 h, 20 μL of WST-1 added to each well and incubated for 3 h at 37° C. in 5% CO2 atmosphere. The plates were gently shaken and the absorbance was measured using a micro plate reader at a wavelength of 490 nm.

SMILES | Percentage cells expressed CYTO-ID [1] [%] | Percentage cytotoxicity after treatment ([2]; 0.01 mg/mL) [%] | Percentage cytotoxicity after treatment ([2]; 0.03 mg/mL) [%] | Percentage cytotoxicity after treatment ([2]; 0.06 mg/mL) [%] | Percentage cytotoxicity after treatment ([2]; 0.07 mg/mL) [%] | Percentage cytotoxicity after treatment ([2]; 0.12 mg/mL) [%] | Percentage cytotoxicity after treatment ([2]; 0.25 mg/mL) [%] | Percentage cytotoxicity after treatment ([2]; 0.5 mg/mL) [%] | Percentage cytotoxicity after treatment ([2]; 1 mg/mL) [%] | Percentage cytotoxicity after treatment ([2]; 5 mg/mL) [%]
NCCCCNCCCN [N-(3-Aminopropyl)-1,4-butanediamine] | 7.24 | 0.74 ± 0.25 | 0.68 ± 2.30 | 0.94 ± 0.18 | 0.86 ± 2.08 | 1.20 ± 0.87 | 4.10 ± 1.63 | 11.79 ± 3.36 | 22.88 ± 2.80 | 39.37 ± 1.37
CC(=O)NCCC(=O)N[C@@H](Cc1c[nH]cn1)C(=O)O [N-α-Acetyl-N-β-alanyl-L-histidine] | 4.03 | – | – | – | – | – | – | – | – | –
CO[C@H]1C[C@@H]2CC[C@@H](C)[C@@](O)(O2)C(=O)C(=O)N2CCCC[C@H]2C(=O)O[C@H]([C@H](C)C[C@@H]2CC[C@@H](O)[C@H](OC)C2)CC(=O)[C@H](C)/C=C(\C)[C@@H](O)[C@@H](OC)C(=O)[C@H](C)C[C@H](C)/C=C/C=C/C=C/1C [Rapamycin, reference compound] | 18.85 | – | – | – | – | – | – | – | – | –
